Measurements: publication PMC3700342 (Biochemical pharmacology, 2013)
In brackets after ≈: the same amount, converted by molar mass.

Key:
[1] = biological target: M. tuberculosis alanine racemase (Mycobacterium tuberculosis, UniProt P9WQA9); assay type: biochemical
[2] = biological target: T1, M. smegmatis alanine racemase (Mycolicibacterium smegmatis, UniProt P94967); test: Alanine racemase assay; assay type: biochemical
T1 sequence (P94967 1-389): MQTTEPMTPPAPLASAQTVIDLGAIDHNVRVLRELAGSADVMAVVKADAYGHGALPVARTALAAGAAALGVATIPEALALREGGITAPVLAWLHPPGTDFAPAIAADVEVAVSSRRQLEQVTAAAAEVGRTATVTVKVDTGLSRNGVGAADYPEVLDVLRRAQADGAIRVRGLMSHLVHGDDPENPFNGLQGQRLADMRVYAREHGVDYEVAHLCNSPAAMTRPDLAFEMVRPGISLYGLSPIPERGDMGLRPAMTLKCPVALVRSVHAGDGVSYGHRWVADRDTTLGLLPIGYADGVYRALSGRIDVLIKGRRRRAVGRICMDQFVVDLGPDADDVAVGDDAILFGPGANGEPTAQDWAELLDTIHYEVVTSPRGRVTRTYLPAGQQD

M. tuberculosis = test: Microtiter broth dilution MIC, M. tuberculosis; assay type: cell-based; conditions: Mycobacterium tuberculosis, read-out: Mtb MIC
M. smegmatis = test: Microtiter broth dilution MIC, M. smegmatis; assay type: cell-based
M. tuberculosis H37Rv = test: Microtiter broth dilution MIC, M. tuberculosis H37Rv; assay type: cell-based; conditions: Mycobacterium tuberculosis
[3] = test system: M. smegmatis and M. tuberculosis growth; test: MIC in the presence of 5 mM D-alanine in the growth medium; assay type: cell-based; conditions: data not shown
C[C@H](N)C(=O)O = test: purified protein, by the assay type
Alanine racemase assay = substrate: C[C@H](N)C(=O)O; test: Alanine racemase assay; assay type: biochemical, M. smegmatis; conditions: other: L-alanine to D-alanine, recombinant enzyme

M. tuberculosis alanine racemase, sequence (P9WQA9 whole entry): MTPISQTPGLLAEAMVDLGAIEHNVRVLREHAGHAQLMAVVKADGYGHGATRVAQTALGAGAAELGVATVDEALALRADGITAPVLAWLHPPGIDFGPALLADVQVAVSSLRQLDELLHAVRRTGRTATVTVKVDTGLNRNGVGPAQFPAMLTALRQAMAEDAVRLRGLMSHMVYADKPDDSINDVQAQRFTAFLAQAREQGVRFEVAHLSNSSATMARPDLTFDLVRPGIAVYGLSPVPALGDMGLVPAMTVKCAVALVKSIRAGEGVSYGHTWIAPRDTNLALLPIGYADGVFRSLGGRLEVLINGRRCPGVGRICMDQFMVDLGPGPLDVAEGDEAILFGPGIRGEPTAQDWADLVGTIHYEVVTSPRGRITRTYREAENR

Work on `C[C@H](N)C(=O)O` [L-alanine] yielded a Kcat [1] of 200 and a Kcat ([2]; L-alanine to D-alanine, recombinant enzyme) of 4300.

`N[C@@H]1CON=C1O` [CS, cycloserine] was tested, and the IC50 [2] was over 100 µM, the MIC (M. tuberculosis) was 6.25 µg/mL (≈ 61.2 µM) and the “MSM MIC” value (M. smegmatis; 2 days, Mueller Hinton broth) was 25 µg/mL. The MIC (M. smegmatis; Mycolicibacterium smegmatis, 48 h, read-out: MSM MIC) was 25 µg/mL (≈ 245 µM), the MIC (M. tuberculosis H37Rv) was 6.25 µg/mL (≈ 61.2 µM) and the “increase in MIC” value [3] was 3 fold.

Molecule “M. tuberculosis alanine racemase (Mycobacterium tuberculosis H37Rv)” has a Km (C[C@H](N)C(=O)O) of 4 mM and a Vmax (C[C@H](N)C(=O)O) of 0.04 mM/min.

B1: M. smegmatis alanine racemase (Mycolicibacterium smegmatis) (protein)
chain: T1 sequence (P94967 1-389)
With B1 the Km (Alanine racemase assay) was 8.5 mM and the Vmax (Alanine racemase assay) was 0.3 mM/min.
